Test results from patent US6153405A, “Lantibiotic mutants and chimeras of enhanced stability and activity, leader sequences therefor, genes encoding the same, and methods of producing and using the same” (The University of Maryland, priority 1998, dated 2000).
Where two headings read alike, the source gives them in different places. *1 amine or outer side, *2 acyl side, *3 side chain or, on linkers, in order; H or OH if unused. Where no end group is shown, it is not given here. Suc = O=C(CCC(=O)[*:2])[*:1]

Key:
[1] = system: Bacillus cereus spores and/or vegetative cells; conditions: cited from earlier work
[2] = stability of dehydro residues in aqueous solution by 1H NMR; format: physicochemical; conditions: D2O, pH 6.0, dark, room temperature
Procedure: Samples for ^1 H NMR spectral analysis were dissolved in deuterated water (99.96 atom % D, Aldrich Chemical Co.), lyophilized (repeated twice) to exchange protons and dissolved in D2 O to a final concentration of 2-3 mg/mL. ^1 H NMR spectra were obtained using a Bruker AMX-500 spectrometer interfaced to an Aspect 3000 computer. Spectra were obtained at a constant temperature of 295 K, using selective solvent suppression. Data were processed using UXNMR software. Mass spectral analysis was performed by PeptidoGenic Research & Co. (Livermore, Calif.) on a Sciex API I Electrospray Mass Spectrometer which has an analysis range of over 200,000 Da with +/-0.01% accuracy, on 5 μL samples at a concentration of about 5 pmol/μL. The reported masses are those calculated as the most probable values based on the different m/z forms.
A 3 mg amount of the Nis1-11 -Sub12-32 chimera (consisting of a mixture of the Early Peak and Late Peak as defined in FIGS. 4 and 5) was dissolved in D2 O at a pH of 6.0, placed in an NMR tube (which was then closed), and incubated in aqueous solution in the dark at room temperature for 2.5 months.

B. cereus T spores [3] = assay: liquid culture assay of spore outgrowth; format: cell-based, Bacillus cereus; conditions: for inhibition of spore outgrowth (inhibitory concentration): B. cereus T spores, 90 min incubation
Procedure: In the liquid culture assay, various concentrations of peptide were added to a suspension of B. cereus T spores in modified medium A and incubated in a rotating drum shaker at 30° C. for 90 min. The inhibitory effects were evaluated using phase contrast microscopy and a Klett-Summerson calorimeter. After incubation, cells were viewed by phase-contrast microscopy to determine their stage of outgrowth. Those cells in early stages of outgrowth (phase-dark and swollen, but only slightly elongated) were considered inhibited. Those cells that were fully elongated and/or divided were considered to be not inhibited. The inhibitory concentration is the concentration of peptide which arrests a majority of the population of spores at the stage of early outgrowth after the 90-min incubation period. Further, spore germination and outgrowth are accompanied by known changes in the optical density at 650 nm. Thus, the stage of outgrowth can be monitored and the inhibitory concentration can be confirmed using a Klett-Summerson calorimeter. Definitive determinations of the inhibitory concentration of peptide advantageously employ both phase-contrast microscopy and measurement of the optical density at 650 nm.

[4] = system: B. cereus vegetative cells; assay: liquid assay of vegetative cells (lysis by turbidity); format: cell-based, Bacillus cereus; conditions: for inhibition of vegetative cells (inhibitory concentration): amount of peptide required to reduce turbidity by 50%
Procedure: The activity of the chimeric Nis1-11 -Sub12-32 peptide towards inhibiting B. cereus vegetative cells was also determined. Heat-shocked B. cereus T spores (150 micrograms) were added to 1% tryptone (Difco)-0.1 M Tris-phosphate buffer (2 ml) at pH 6.8. The mixture was incubated for 2 hours at 37° C. in a rotating drum shaker, whereupon all of the spores were in the vegetative state. The chimeric peptide was then added, and incubation was continued for one additional hour. Cell lysis was monitored by turbity (measured in Klett units), and the integrity of the cell was determined by phase-contrast microscopy. Relative inhibitory effectiveness was measured as the amount of inhibitory peptide required to reduce the turbity by 50%.

B. cereus T spores [5] = assay: inhibition zone (halo) assay; format: cell-based, Bacillus cereus; conditions: HPLC fractions spotted on agar, sprayed with B. cereus T spores
Procedure: Biological activity was measured using an inhibition zone (halo) assay (ref. 21 and U.S. application Ser. No. 07/981,525 now U.S. Pat. No. 5,516,682) and a liquid culture assay (26). HPLC fractions were tested for activity by spotting 15 μL onto an agar plate (modified Medium A), incubating at 37° C. for 15 min., spraying with B. cereus T spores and incubating at 37° C. for 16 hr. Positive inhibition is defined as and was determined by a clear zone containing spores that were inhibited during outgrowth surrounded by an opaque lawn of cells derived from the spores that had become vegetative.

[6] = inferred through nisin from previous measurements (21, 26, 31)

Substance: NL --Nis1-34: complete nisin prepeptide: nisin leader region and nisin structural region (MSTKDFNLDLVSVSKKDSGASPRITSISLCTPGCKTGALMGCNMKTATCHCSIHVSK; full-length; UniProt P13068 1-57, looked up)
- Secreted peptide is active ([1]; prepeptide expressed in L. lactis 11454, ref. c (17)): yes

Substance: Nis1-11 -Sub12-32: chimeric lantibiotic: nisin residues 1-11 and subtilin residues 12-32 (SEQ ID NO:5), processed by B. subtilis 168
- change in the NMR resonances of the dehydro residues ([2]; 72-day incubation, mixture of Early Peak and Late Peak): no significant change
- half-life of the Dha5 residue ([2]; NMR at 0, 34 and 72 days): so long that it cannot be estimated from the 72-day time-point
- activity against spore outgrowth (B. cereus T spores [3]): active
- inhibition of spore outgrowth (inhibitory concentration) (B. cereus T spores [3]): about 0.2 μg/ml
- activity relative to E4I-subtilin (fold more active) (B. cereus T spores [3]; [6]): about 2 fold
- activity relative to natural subtilin (times more active) (B. cereus T spores [3]; [6]): 6-8 times
- activity against vegetative growth [4]: active
- inhibition of vegetative cells (inhibitory concentration) [4]: about 2 μg/ml
- antimicrobial activity in halo assay (B. cereus T spores [5]): possessed antimicrobial activity
- antimicrobial activity in halo assay (B. cereus T spores [5]; listed as Early Peak): antimicrobial activity is associated mainly with the Early Peak

Substance: SL --S1-32: prepeptide: subtilin leader sequence and subtilin structural region (MSKFDDFDLDVVKVSKQDSKITPQWKSESLCTPGCVTGALQTCFLQTLTCNCKISK; full-length; UniProt P10946 1-56, looked up)
- Secreted peptide is active ([1]; prepeptide expressed in B. subtilis 168, ref. b (21)): yes
- Secreted peptide is active ([1]; prepeptide expressed in B. subtilis 6633): yes

Substance: nisin [reference compound]
- inhibition of spore outgrowth (inhibitory concentration) (B. cereus T spores [3]): about 0.2 μg/ml
- inhibition of vegetative cells (inhibitory concentration) [4]: about 2 μg/ml

Substance: succinylated subtilin: subtilin succinylated at its N-terminus, accumulates in late stationary phase of B. subtilis 6633 (Suc-WKSESLCTPGCVTGALQTCFLQTLTCNCKISK; cysteine pairing not given here; also: lantibiotic (post-translational modifications not placed); UniProt P10946 25-56, looked up)
- activity compared with normal unsuccinylated subtilin ([1]; succinylated at N-terminus): significantly less active
